Measured values as given in ChEMBL document CHEMBL4373746, “Structural attributes influencing unbound tissue distribution” (Eur J Med Chem, 2020).

Key:
[1] = Unbound tissue partition coefficient, ratio of drug level in brain to plasma in mouse administered as single dose; type: ADME; details: read-out: K(p,uu,brain)
[2] = Unbound tissue partition coefficient, ratio of drug level in brain to plasma in Wistar Han rat at 1 to 2 mg/kg, iv infused for 10 to 20 hrs by LC-MS/MS analysis
[3] = Drug concentration in total skeletal muscle in Wistar Han rat at 1 to 2 mg/kg, iv infused for 10 to 20 hrs by LC-MS/MS analysis; details: in vivo
[4] = Unbound tissue partition coefficient, ratio of drug level in adipose to plasma in Wistar Han rat at 1 to 2 mg/kg, iv infused for 10 to 20 hrs by LC-MS/MS analysis
[5] = Unbound tissue partition coefficient, ratio of drug level in liver to plasma in Wistar Han rat at 1 to 2 mg/kg, iv infused for 10 to 20 hrs by LC-MS/MS analysis
[6] = Total plasma concentration in Wistar Han rat at 1 to 2 mg/kg, iv infused for 10 to 20 hrs by LC-MS/MS analysis; details: in vivo
[7] = Unbound tissue partition coefficient, ratio of drug level in heart to plasma in Wistar Han rat at 1 to 2 mg/kg, iv infused for 10 to 20 hrs by LC-MS/MS analysis
[8] = Drug concentration in total heart in Wistar Han rat at 1 to 2 mg/kg, iv infused for 10 to 20 hrs by LC-MS/MS analysis; details: in vivo
[9] = Apparent permeability of the compound across dog RRCK cells by MDCK-LE assay
[10] = Drug concentration in total white adipose tissue in Wistar Han rat at 1 to 2 mg/kg, iv infused for 10 to 20 hrs by LC-MS/MS analysis; details: in vivo
[11] = Unbound tissue partition coefficient, ratio of drug level in skeletal muscle to plasma in Wistar Han rat at 1 to 2 mg/kg, iv infused for 10 to 20 hrs by LC-MS/MS analysis
[12] = Drug concentration in total brain in Wistar Han rat at 1 to 2 mg/kg, iv infused for 10 to 20 hrs by LC-MS/MS analysis; details: in vivo
[13] = Drug concentration in total liver in Wistar Han rat at 1 to 2 mg/kg, iv infused for 10 to 20 hrs by LC-MS/MS analysis; details: in vivo
[14] = Fraction unbound in Wistar Han rat white adipose tissue at 2 uM incubated for 6 hrs by equilibrium dialysis method
[15] = Fraction unbound in Wistar Han rat plasma at 2 uM incubated for 6 hrs by equilibrium dialysis method
[16] = Fraction unbound in Wistar Han rat liver at 2 uM incubated for 6 hrs by equilibrium dialysis method
[17] = Fraction unbound in Wistar Han rat heart at 2 uM incubated for 6 hrs by equilibrium dialysis method
[18] = Fraction unbound in Wistar Han rat brain at 2 uM incubated for 6 hrs by equilibrium dialysis method
[19] = Fraction unbound in Wistar Han rat skeletal muscle at 2 uM incubated for 6 hrs by equilibrium dialysis method

Row | Compound | Papp [9] | Kp uu ([2]; brain/plasma) | fraction unbound at 6 h, 2 µM [14] | Ct [3] | Kp uu ([4]; adipose/plasma) | Kp uu ([5]; liver/plasma) | Cp [6] | Kp uu ([7]; heart/plasma) | fraction unbound at 6 h, 2 µM [15] | fraction unbound at 6 h, 2 µM [16] | Ct [8] | fraction unbound at 6 h, 2 µM [17] | Ct [10] | fraction unbound at 6 h, 2 µM [18] | fraction unbound at 6 h, 2 µM [19] | Kp uu ([11]; skeletal muscle/plasma) | Ct [12] | Ct [13] | other results
1 | CC(C)c1nc(CN(C)C(=O)N[C@H](C(=O)N[C@@H](Cc2ccccc2)C[C@H](O)[C@H](Cc2ccccc2)NC(=O)OCc2cncs2)C(C)C)cs1 [RITONAVIR] | 9.9 ×10⁻⁶ cm/s |  |  |  |  |  |  |  |  |  |  |  |  |  |  |  |  |  | Kp uu [1]: 0.019; Kp uu ([2]; brain): 0.0018; Ct ([3]; Wistar Han): 42 ng/mL; Kp uu ([4]; other tissue): 9.6; Kp uu ([5]; other tissue): 1.2; Cp ([6]; Wistar Han): 27 ng/mL; Kp uu ([7]; other tissue): 9.6; Ct ([8]; Wistar Han): 170 ng/mL; Ct ([10]; Wistar Han): 31 ng/mL; Kp uu ([11]; other tissue): 0.56; Ct ([12]; Wistar Han): 0.38 ng/mL; Ct ([13]; Wistar Han): 370 ng/mL
2 | O=C(O)c1nc2cc(Cl)c(Cl)cc2nc1O [6,7-DICHLORO-3-HYDROXY-2-QUINOXALINECARBOXYLIC ACID] | 1.3 ×10⁻⁶ cm/s | 0.0018 | 0.476 | 5.3 ng/mL | 0.024 | 2 | 56 ng/mL | 1.8 | 0.0414 | 0.24 | 12 ng/mL | 0.284 | 0.77 ng/mL | 1 | 0.435 | 1.1 | 0.38 ng/mL | 17 ng/mL | 
3 | N#Cc1ccc(N2N=C(N3CCC(C(=O)N4CCC(O)CC4)CC3)C[C@H]2C2CCCC2)cc1Cl | 20 ×10⁻⁶ cm/s | 0.029 | 0.109 | 150 ng/mL | 5.9 | 4.3 | 240 ng/mL | 0.68 | 0.00962 | 0.00991 | 550 ng/mL | 0.00283 | 120 ng/mL | 0.00431 | 0.00952 | 0.59 | 16 ng/mL | 1000 ng/mL | 
4 | COc1cc2c(cc1Cc1ccccc1)C[C@H](N)C(=O)N2OC(=O)N(C)C | 38 ×10⁻⁶ cm/s | 0.1 | 0.214 | 32 ng/mL | 1.1 | 0.74 | 18 ng/mL | 2.5 | 0.354 | 0.147 | 76 ng/mL | 0.209 | 33 ng/mL | 0.0385 | 0.0886 | 0.46 | 16 ng/mL | 33 ng/mL | 
5 | COc1cc2c(OC[C@H]3NC(=O)[C@@H]4C[C@]34C)nccc2cc1C(N)=O | 19 ×10⁻⁶ cm/s | 0.032 | 0.803 | 67 ng/mL | 0.38 | 11 | 110 ng/mL | 1.2 | 0.298 | 0.368 | 100 ng/mL | 0.399 | 16 ng/mL | 0.294 | 0.403 | 0.8 | 3.7 ng/mL | 1000 ng/mL | 
6 | O=C(NC1CCCC1)C1CCN(c2nc3cc(Cl)ccc3o2)CC1 | 35 ×10⁻⁶ cm/s | 0.64 | 0.0248 | 59 ng/mL | 3.9 | 4.3 | 310 ng/mL | 2.2 | 0.00646 | 0.0414 | 150 ng/mL | 0.0292 | 330 ng/mL | 0.0144 | 0.02 | 0.61 | 88 ng/mL | 210 ng/mL | 

Continued, in another order:

Row | Papp [9] | Kp uu ([2]; brain/plasma) | fraction unbound at 6 h, 2 µM [14] | Ct [3] | Kp uu ([4]; adipose/plasma) | Kp uu ([5]; liver/plasma) | Cp [6] | Kp uu ([7]; heart/plasma) | fraction unbound at 6 h, 2 µM [15] | fraction unbound at 6 h, 2 µM [16] | Ct [8] | fraction unbound at 6 h, 2 µM [17] | Ct [10] | fraction unbound at 6 h, 2 µM [18] | fraction unbound at 6 h, 2 µM [19] | Kp uu ([11]; skeletal muscle/plasma) | Ct [12] | Ct [13] | Compound | other results
7 | 14 ×10⁻⁶ cm/s | 0.0018 | 0.179 | 69 ng/mL | 0.21 | 4.4 | 76 ng/mL | 0.8 | 0.0645 | 0.0393 | 100 ng/mL | 0.0378 | 6 ng/mL | 0.0216 | 0.0611 | 0.87 | 0.38 ng/mL | 540 ng/mL | Cn1cnc(-c2ccc(O[C@H]3CCN(C(=O)Cc4ccc(OC(F)(F)F)cc4)C[C@@H]3F)c(C(N)=O)c2)c1 | 
8 | 26 ×10⁻⁶ cm/s | 0.24 | 0.137 | 100 ng/mL | 1.6 | 4.7 | 150 ng/mL | 2.8 | 0.044 | 0.0561 | 220 ng/mL | 0.0693 | 73 ng/mL | 0.0366 | 0.0634 | 1 | 40 ng/mL | 520 ng/mL | CC1(OC(=O)N2CCC(n3ncc(COc4ccc(C(N)=O)cc4F)c3C#N)CC2)CC1 | 
9 | 3.8 ×10⁻⁶ cm/s | 0.0018 | 0.0123 | 18 ng/mL | 2.4 | 0.033 | 36 ng/mL | 0.9 | 0.00155 | 0.00176 | 54 ng/mL | 0.000968 | 11 ng/mL | 0.00141 | 0.00165 | 0.54 | 0.38 ng/mL | 1.4 ng/mL | Nc1noc2ccc(-c3cc(Cl)ccc3Oc3cc(F)c(S(=O)(=O)Nc4cscn4)cc3F)cc12 | 
10 | 24 ×10⁻⁶ cm/s | 0.078 | 0.393 | 170 ng/mL | 2.4 | 9.4 | 42 ng/mL | 5.3 | 0.0995 | 0.0394 | 410 ng/mL | 0.057 | 28 ng/mL | 0.0227 | 0.0483 | 2 | 14 ng/mL | 960 ng/mL | O=C(c1cccc(N2CCNCC2)n1)N1CCC(c2ccccc2F)CC1 | 
11 | 0.1 ×10⁻⁶ cm/s | 0.028 | 0.000192 | 240 ng/mL | 0.87 | 5.6 | 240 ng/mL | 0.68 | 0.00041 | 0.000706 | 620 ng/mL | 0.000104 | 410 ng/mL | 8.38e-05 | 5.36e-05 | 0.14 | 31 ng/mL | 730 ng/mL | C[C@H](CN1CCOCC1)n1/c(=N\C(N)=O)[nH]c2cc(/C=C3\c4ccccc4COc4cc(F)ccc43)ccc21 [LY2623091] | 
12 | 2.3 ×10⁻⁶ cm/s | 0.13 | 0.347 | 16 ng/mL | 3.8 | 8.7 | 330 ng/mL | 2.9 | 0.00473 | 0.0303 | 82 ng/mL | 0.0523 | 15 ng/mL | 0.0414 | 0.0546 | 0.6 | 4.2 ng/mL | 380 ng/mL | COc1ccc(-c2cc3c(S(=O)(=O)O)c[nH]c3cc2Cl)cc1 | 
13 | 17 ×10⁻⁶ cm/s | 0.0018 | 0.165 | 20 ng/mL | 0.024 | 0.037 | 88 ng/mL | 4.2 | 0.00353 | 0.00824 | 80 ng/mL | 0.0159 | 0.77 ng/mL | 0.00874 | 0.017 | 1.1 | 0.38 ng/mL | 1.5 ng/mL | O=C(O)[C@@H]1CCN(C(=O)n2cnc(-c3ccc(-c4cnc(N5CCOCC5)nc4)cc3)n2)[C@@H](c2ccccc2)C1 | 
